This is an account of results in a melting point compilation (Tetko et al.; mined from patent text by program, amines drawn as free bases though some values may be those of a salt).

One may read the melting point as the temperature, or range, at which the solid turns liquid. For the compound `Cc1cc(-c2ccc(C(F)(F)F)cc2)cn2c(-c3nc(-c4cccc(S(N)(=O)=O)c4)no3)cnc12`, the melting point was found to be 326 °C.

For the compound `COC(=O)C1CC(C#N)(c2ccc(OC)c(OC)c2)CCC1=O` (stereo unspecified), the melting point was in the range of 102 to 108 °C.

In turn, `CC(C)c1sc2ncnc(N)c2c1-c1ccc(N)cc1` yielded a melting point of 187 to 189 °C.

In turn, `CC(C)c1ccc(-n2nnc(-c3ccc(OC(=O)C(C)(C)C)cc3)n2)cc1` registered a melting point of 122 to 125 °C.

For the compound `O=S1(=O)NCN(CCF)c2cc(Cl)cc(Cl)c21`, the melting point was in the range of 180 to 184 °C.

The compound `CC(C)(c1ccccc1)N1CCC=C(c2ccccc2)C1=O` came in with a melting point of 119 to 120 °C.

With `C[C@@H](NC(=O)c1cnc(-c2ccc(Cl)cc2)s1)[C@](O)(Cn1cncn1)c1ccc(F)cc1F`, the melting point lay within 194 to 195 °C.

Consider `C=CCOc1cccc(C2=NNC(=O)CC2)c1`, for which the melting point fell in the range of 111 to 113 °C.

With `C=CC(=O)OCCCCCCOc1ccc(-c2cccc(F)c2F)cc1`, the melting point was in the range of 45.6 to 46.8 °C.

`COCOc1ccccc1-c1cc(-c2cccc([N+](=O)[O-])c2)c(C#N)c(N)n1` had a melting point of 169 to 171 °C.

In the case of `CC(C)(C)C(Cc1ccc(Br)cc1)C(=O)n1ccnc1` (stereo unspecified), the melting point fell in the range of 101 to 102 °C.

The compound `N#CC1CC(c2ccccc2Cl)=NC1c1ccc(-c2ccc(OC(F)(F)F)cc2)cc1` (stereo unspecified) gave a melting point of 132 °C.

For the compound `C#CCNC(=NCCSCc1csc(NC(=N)N)n1)NC#N`, the melting point lay in the range of 146 to 148 °C.

As for `CC(Oc1ccc(Oc2ccc3cc(Cl)ccc3n2)cc1)C(=O)O` (stereo unspecified), the melting point came to 130 °C.

For `N#CCc1cc2c(cc1CC#N)OCO2`, the melting point fell in the range of 105 to 107 °C.

In turn, `N#CC1c2ccccc2Oc2ccccc21` yielded a melting point of 97 to 98 °C.

Take `COCCNC(=O)c1ccnc(-c2ccc3c(c2)C(c2ccc(Cl)cc2Cl)CC3)c1` (stereo unspecified): the melting point was in the range of 154 to 155 °C.

`N#Cc1ccc(N2C(=O)NC3(CCOCC3)C2=O)cc1C(F)(F)F` yielded a melting point of 192 to 193 °C.

Consider `CCCNCC(O)c1cccc(Br)c1` (stereo unspecified), for which the melting point lay in the range of 79.7 to 81.4 °C.

In turn, `CNCCON=C1c2ccccc2C2CC2c2ccccc21` (stereo unspecified) gave a melting point of 100 to 101 °C.

Consider `O=C(CO)OC(=O)CCS`, for which the melting point lay in the range of 143 to 144 °C.

Take `CC(CCc1ccc(Cl)cc1)(Cn1ccnc1)Sc1cc(Cl)ccc1Cl` (stereo unspecified): the melting point is 150 °C.

In turn, `O=C1C=C(NC(=O)C(=O)c2cn(Cc3cccc(Cl)c3)c3ccccc23)CO1` returned a melting point of 268 to 270 °C.

In turn, `CCCCCCCCCCCCCCc1ccc(N(CC(=O)OC)CC(=O)OC)cc1` registered a melting point of 160 to 165 °C.

In turn, `CS(=O)(=O)c1ccc([C@@H](CC2CCCC2)C(=O)Nc2nc3ccccc3s2)cc1` had a melting point of 100 to 105 °C.

For the compound `CCOC(=O)c1cc2ccc3c4ccccc4ccc3c2n1C`, the melting point lay within 136 to 138 °C.

For `CC(=O)c1ccc(C)cc1N(C)C=O`, the melting point was in the range of 58 to 60 °C.

Compound `O=C(O)c1cc(OCC(F)(F)F)c(Cl)cc1[N+](=O)[O-]` gave a melting point of 153 to 155 °C.

`CC(C)c1cccc(-c2ccc(F)cc2)c1/C=C/COc1ccc(C(=O)C(=O)O)cc1` yielded a melting point of 142 to 143 °C.

`NS(=O)(=O)Oc1ccc(F)cc1`: the melting point is 82.5 to 85.5 °C.

As for `CN1CCC(c2ccc(Cl)c(Cl)c2)C(CO)C1` (stereo unspecified), the melting point was in the range of 109 to 111 °C.

Take `CCOC(=O)c1c(NC(=O)NC(C)C)sc(C)c1C`: the melting point was determined as 135 °C.

For `COc1nc(C)nc(NC(=O)NS(=O)(=O)c2cccnc2OC2CCCC2)n1`, the melting point lay within 170 to 172 °C.

Compound `COc1cc(OC)c(C(=O)c2cc(Cl)ccc2NC(C)=O)c(OC)c1` gave a melting point of 159 to 160 °C.

The compound `CN1C(c2cccnc2)CC(=O)CC1c1cccnc1` (stereo unspecified) gave a melting point of 103 to 106 °C.

Regarding `O=CN(CCl)c1ccccc1`, the melting point was 67 °C.

On to `O=C1NCCc2ccc(OCCCCN3CCN(c4cccc5c4OCC5)CC3)nc2N1`, for which the melting point is 72 to 73 °C.

As for `Cc1ccc([N+](=O)[O-])cc1Nc1cc(Cl)ccn1`, the melting point lay within 130 to 133 °C.

Take `CC1(C(=O)O)COC2(CC3CCC2(C)C3(C)C)OC1` (stereo unspecified): the melting point fell in the range of 172 to 175 °C.

As for `O=C(O)C1=Cc2ccc(-c3ccccc3)cc2OC1C(F)(F)F` (stereo unspecified), the melting point was in the range of 209 to 212 °C.

Turning to `NCc1cccc(CNc2ncc3ncnc(Nc4ccc(F)c(Cl)c4)c3n2)c1`, the melting point lay in the range of 179 to 182 °C.

`c1ccc(CN2CCC3(CC2)OCCO3)cc1` yielded a melting point of less than 50 °C.

For `CC(=O)Oc1cn(Cc2c(F)cccc2F)c2sc(-c3ccc([N+](=O)[O-])cc3)c(C)c2c1=O`, the melting point is 216 to 217 °C.

`Nc1nc2ccccc2c2c1nc(O)n2Cc1ccccc1` had a melting point of more than 250 °C.

With `CC(=O)N1N=C(c2ccc([N+](=O)[O-])c(C)c2)c2cc3c(cc2C=C1C)OCO3`, the melting point was in the range of 115 to 116 °C.

In turn, `CNC(=O)c1ccc(C=C2CC3CCC(C2)N3)cc1` gave a melting point of 164 to 166 °C.

In the case of `CCOC(=O)COc1ccc(C(=O)Nc2cc(OC)ccc2Sc2ccccc2-c2nnn[nH]2)cc1`, the melting point is 195 to 197 °C.

Compound `COC1=C(OC)C(=O)C2=C(CCC(CCn3c(=O)ccc4ccccc43)CC2)C1=O` had a melting point of 88 to 90 °C.

The compound `Cc1cc(S(=O)(=O)NC(=O)c2cn3cc(C(F)(F)F)cc(Cl)c3n2)c(C)cc1C#N` showed a melting point of 228 to 229 °C.

For the compound `O=C1NN(C(=O)c2ccccc2NCc2ccccc2)Cc2ccccc21`, the melting point lay in the range of 206 to 208 °C.

Regarding `O=[N+]([O-])c1c(Nc2ccc3[nH]ccc3c2)ncnc1-c1ccc(C(F)(F)F)cc1F`, the melting point lay within 147 to 149 °C.

Regarding `Cc1cc(-c2c(O)c(=O)c2=O)c2c(C)ccc(C(C)C)cc1-2`, the melting point was in the range of 120 to 123 °C.

`Nc1cc(F)c(F)c(Br)c1Cl` came in with a melting point of 83 to 86 °C.

In turn, `Cc1cc2c(=O)n3cc(C(=O)O)ccc3nc2s1` came in with a melting point of 312 to 315 °C.

For the compound `O=C1CCCc2ccc(-c3ccccc3)cc21`, the melting point is 67 °C.

On to `CCOC(=O)CSc1nc(Cl)cc(Nc2c(C)cc(C)cc2C)n1`, for which the melting point was 100 to 103 °C.

The compound `CN(C(=O)Nc1nc(OCC(F)(F)F)cc(OCC(F)(F)F)n1)c1ccc(CC(F)(F)F)s1` showed a melting point of 99 to 101 °C.

In turn, `O=S(=O)(c1ccccc1)n1ccc2c(Cl)ncnc21` yielded a melting point of 163 to 167 °C.

`O=C(Nc1ccc(-n2nc(C(F)(F)F)cc2C2CC2)nc1)c1cccc(F)c1F` had a melting point of 151 to 156 °C.

`COc1ccc2c(c1)c(Br)cn2C(=O)OC(C)(C)C` registered a melting point of 111 to 112 °C.

The compound `CCCCCCCCCCCC1OC1CO` (stereo unspecified) gave a melting point of 68 to 70 °C.

Consider `CC1(C)OC(=O)COC1=O`, for which the melting point was 82 to 83 °C.

As to `COc1cc(NC(=O)Nc2c(-c3ccccc3Cl)c3cc(C)ccc3oc2=O)cc(OC)c1OC(C)=O`, the melting point lay within 238 to 240 °C.

Take `Cc1cc(-c2nc3cc(F)cc(F)c3s2)ccc1N`: the melting point lay in the range of 201 to 203 °C.

`Clc1ccccc1-n1nnnc1Cl` registered a melting point of 101 to 103 °C.

On to `CCCC(=O)N1CCC(C(=O)OC2c3ccccc3C(=O)N2c2ccc3ccc(Cl)nc3n2)CC1` (stereo unspecified), for which the melting point amounted to 165 °C.

As to `Cc1ccc(C(=O)Nc2nc(-c3ccccc3)c(-c3nc4ccccc4c(=O)n3-c3ccc(C)cc3)s2)cc1`, the melting point lay in the range of 217 to 218 °C.

Take `CC(C)(C)OC(=O)N1CCC(N(Cc2ccccc2)S(N)(=O)=O)CC1`: the melting point lay in the range of 140 to 142 °C.

For `CCOC(=O)Nc1cc(F)cc(CCCCC(=O)O)c1`, the melting point lay in the range of 136 to 137 °C.

As to `COC(=O)c1cc2cc(OC)ccc2cc1O`, the melting point is 129 to 131 °C.

For the compound `COC(=O)c1ccc(C(C)(O)c2cc3cc(C(F)(F)F)ccc3n2S(=O)(=O)c2cccc(C(C)(C)C)c2)cc1` (stereo unspecified), the melting point amounted to 70 °C.

Compound `CC(=O)c1ccc(F)c(COc2ccc(S(=O)(=O)c3ccc(C)nc3Nc3c(C)cc(C)cc3C)cc2)c1` came in with a melting point of 141 to 143 °C.

The compound `Cc1cn2nc(Cl)ccc2n1` gave a melting point of 131 °C.

As for `CC(C)(C)OC(=O)C(=[N+]=[N-])C(=O)C(SCc1ccccc1)C1CC(=O)N1` (stereo unspecified), the melting point came to 119 °C.

`CCCCCCCCCCCCCCOc1cccc(CC(=O)Nc2cccc(CO)c2)c1`: the melting point is 86 to 90 °C.

Take `N#Cc1cc(C(=O)Nc2ccc(Cl)cn2)nc(C(F)(F)F)c1`: the melting point stood at 208 °C.

The compound `CNC(=O)C(Cc1c[nH]c2ccccc12)NC(=O)C(CC(C)C)C(CC(=O)OC)SC(C)=O` (stereo unspecified) came in with a melting point of 134 to 136 °C.

Consider `N#Cc1ccc(C=Cc2ccc(OCC(O)CO)cc2)cc1` (stereo unspecified), for which the melting point was in the range of 172 to 173 °C.

As to `CCc1ccc2[nH]c(=O)[nH]c(=O)c2c1`, the melting point is 271 to 274 °C.

In turn, `COCc1cnc2c(NC(=O)c3c(Cl)cccc3Cl)ccc(C)c2c1-n1ccnc1` came in with a melting point of 179 to 180 °C.

The compound `Cc1ccncc1-c1nc(-c2ccc(Cl)cc2)c(Cl)s1` yielded a melting point of 146 °C.

`Cn1ncc2c1-c1c(S(C)(=O)=O)sc(S(N)(=O)=O)c1CC2`: the melting point was 228 to 229 °C.

For `COc1ncnc2c(Cl)c(NC(=S)NCCN)ccc12`, the melting point lay in the range of 230 to 232 °C.

With `Nc1ncnc2ncn(COCCCl)c12`, the melting point was 184 to 186 °C.

As for `COc1cccc2c(Nc3cccc(Br)c3)c(C#N)cnc12`, the melting point was in the range of 210 to 212 °C.

`COc1cc(C(=O)[C@H](C)NC(=O)C(F)(F)F)c(OC)cc1Br` gave a melting point of 144 to 145 °C.

`COc1ccc(S(=O)(=O)C2(C(=O)NO)CCN(Cc3ccc(-c4ccccn4)cc3)CC2)cc1` registered a melting point of 214 °C.

As for `Cc1oc2c(C)c(C)c(NCc3ccc(F)cc3)c(C)c2c1-c1ccc(C(C)C)cc1`, the melting point was 95 to 97 °C.

Take `COc1cccc([C@H]2O[C@H](CC(=O)Nc3cccc(CCCC(=O)O)c3)C(=O)N(CC(C)(C)CO)c3ccc(Cl)cc32)c1OC`: the melting point fell in the range of 119 to 122 °C.

Compound `C#CC1(O)CCC2C3CCC4=CC(=O)CCC4C3CCC21CCC` (stereo unspecified) registered a melting point of 149 to 150 °C.

In the case of `CCCNc1ccc(C(=O)N2CCCC(CC(=O)NC(C)C)c3ccccc32)c(Cl)c1` (stereo unspecified), the melting point was in the range of 140 to 143 °C.
